Literature values in US7837990B2, “In vivo expanded NKT cells and methods of use thereof” (The Rockefeller University, priority 2005, dated 2010).

Legend:
NKT cells = details: patients with advanced cancer or healthy volunteers
tumor = details: mouse models

Structure (SMILES): CCCCCCCCCCCCCCCCCCCCCCCCCC(=O)N[C@@H](CO[C@H]1O[C@H](CO)[C@H](O)[C@H](O)[C@H]1O)[C@H](O)[C@H](O)CCCCCCCCCCCCCC [KRN-7000, α-galactosyl ceramide]
- NKT activation in vivo (NKT cells): transient NKT activation in some individuals
- anti-tumor effect (tumor): tumor regression in several mouse models
